In patent US8329643B2, “PIMAP39 modulates LPS-induced inflammatory response” (Trustees of Boston University, priority 2008, dated 2012):
Entries after “also recorded” stand apart in the source; their conditions may differ. No end group written: not given here.

Experiments:
[1] = test system: LPS-induced endotoxic shock; test: Endotoxic shock assay: survival of mice after lethal dose of LPS + D-Gal; format: in vivo, mouse; details: lethal dose LPS + control peptide
Experimental: (§1) (A) Weight-matched wild-type mice (n=15) were injected intraperitoneal (i.p.) with a lethal dose of LPS (1 mg D-Gal+12.5 ng LPS per gram body weight) followed immediately by tail vein injection of DMSO (black line), 40 µg/g SCpep as control (green line) or […] PIMAP39 (red line). The treated mice were monitored for their behavior and mortality every hour. The survival time of each treated mouse was graphed. […] (B) Blood was collected every 2 hours post injection for a total duration of 6 hours. Mice were warmed under heating lamps to promote blood flow and a small incision was made on the tail. About 10-50 μl of blood was collected per animal at each time point (2, 4 or 6 hours). […] Pooled plasma samples from the mice within each group were measured in triplets by ELISA (Abraxis) to see the effects of PIMAP39 on TNF-α production. ELISA immunoreactivity was quantitated using a microplate reader (Bio-Rad) and the results from the 6 hr mark were graphed (only the data for LPS+DMSO and LPS+PIMAP39 are presented here due to the similarity between LPS+DMSO and LPS+SCepetide). […]
(§2) To investigate how PIMAP39 mediates endotoxic shock, 3 month old, weight matched mice were treated with a lethal dose of LPS (12.5 ng LPS+1 mg D-Gal per gram body weight) followed immediately by a tail vein injection of PIMAP39 or controls. The treated mice were monitored for their behavior and mortality every hour. […]

[2] = test system: TNF-α; test: Plasma TNF-α by ELISA in the endotoxic shock assay; format: in vivo, mouse; details: 6 hr mark
Experimental: as §1, §2

[3] = test system: white blood cells within the liver sections; test: Fluorescence microscopy detection of FITC-labeled PIMAP39 in mouse liver sections after tail vein injection; format: in vivo; details: 1 mg FITC-PIMAP39 by tail vein injection, one hour post injection, vs DMSO alone
Experimental: Macrophage samples: Cells (5×10^3) from 3 month old mice were seeded over cover slips (22 mm) in 6-well plates and were treated with 500 ng/ml FITC-PIMAP39 (B) or DMSO alone (A) and continuously incubated overnight. Cover slips were removed and cells were stained with 50 nM LysoTracker Red DND-99 (Invitrogen) for 1.5 hours and then air-dried. Tissue section samples: Mice were treated with 1 mg of FITC-PIMAP39 (E, F) or DMSO alone as control (C, D), by tail vein injection as described. One hour post injection mice were sacrificed and their livers were harvested. Harvested livers were set in uniform orientations in molds using Histoprep™ (Fisher). 10 μm thick cross-sections were cut and transferred with a paintbrush to glass slides followed by H & E staining. Cross-sections were made at −24° C. using an HM505E cryostat (Microm). Both the treated cells and sections above were exposed to visible light for structural identification (C & E) and fluorescent light for signal location (A, B, D & F) by Olympus BX40 microscope at 200× (A & B) or 1000× (C-F) magnification and photographed. The FITC-PIMAP39-induced fluorescent signal in some macrophages (B) or in the leukocytes within the veins of the liver (F) was observed. The images were taken with a MicroFIRE camera under exposure time (1 second for fluorescent light, 30 second for visible light). […]

Row | presence / uptake of peptide in white blood cells in vivo (liver sections, fluorescent signal) [3] | Sequence | time at which deaths occurred [1] [h] | time at which most mice became sick [1] [h] | plasma TNF-α compared with LPS+DMSO [2]
1 |  | VTGKLTDTEVVTAYVIDEPKYVCRVTGK [SCpep] | 6 to 8 | 3 to 4 | similarity
2 | cell permeable; also recorded: taken up | KYGATTVVRVCEVTYDKTPLEKDGITVV [PIMAP39] |  |  | 
